This note sets out measurements from patent US9125913B2, “Bcl-2-selective apoptosis-inducing agents for the treatment of cancer and immune diseases” (AbbVie Inc., priority 2008, dated 2015).

Bounds are passed on as bounds.

The test relates to GST-Bcl-2. The test can be described thus: TR-FRET binding assay, Bcl-2. To be noted: TR-FRET Ki values. The procedure, abridged: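 Compounds serially diluted in DMSO from 50 μM (2× starting concentration, 10% DMSO), mixed with GST-tagged protein, F-Bak peptide probe and Tb-labeled antibody, incubated 3 h at room temperature.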
(In TR-FRET formats the signal depends on donor and acceptor labels being close together.)
For `COCCCNc1ccc(S(=O)(=O)NC(=O)c2ccc(N3CCN(CC4=C(c5ccc(Cl)cc5)CC(C)(C)CC4)CC3)cc2Oc2ccc3[nH]ccc3c2)cc1[N+](=O)[O-]` [EXAMPLE 317, 4-(4-{[2-(4-chlorophenyl)-4,4-dimethylcyclohex-1-en-1-yl]methyl}piperazin-1-yl)-2-(1H-indol-5-yloxy)-N-({4-[(3-methoxypropyl)amino]-3-nitrophenyl}sulfonyl)benzamide], the “Binding selectivity ratio (Bcl-XL Ki/Bcl-2 Ki)” value (“Binding selectivity ratio” below) was over 235.9.

Regarding `COCCCNc1ccc(S(=O)(=O)NC(=O)c2ccc(N3CCN(CC4=C(c5ccc(Cl)cc5)CC(C)(C)CC4)CC3)cc2Oc2cccc3[nH]ccc23)cc1[N+](=O)[O-]` [EXAMPLE 318, 4-(4-{[2-(4-chlorophenyl)-4,4-dimethylcyclohex-1-en-1-yl]methyl}piperazin-1-yl)-2-(1H-indol-4-yloxy)-N-({4-[(3-methoxypropyl)amino]-3-nitrophenyl}sulfonyl)benzamide], the “Binding selectivity ratio” value was determined as 102.6.

With `CC1(C)CCC(CN2CCN(c3ccc(C(=O)NS(=O)(=O)c4ccc(NCCC#N)c([N+](=O)[O-])c4)c(Oc4ccc5[nH]ccc5c4)c3)CC2)=C(c2ccc(Cl)cc2)C1` [EXAMPLE 319, 4-(4-{[2-(4-chlorophenyl)-4,4-dimethylcyclohex-1-en-1-yl]methyl}piperazin-1-yl)-N-({4-[(2-cyanoethyl)amino]-3-nitrophenyl}sulfonyl)-2-(1H-indol-5-yloxy)benzamide], the “Binding selectivity ratio” value worked out at 503.4.

`CC1(C)CCC(CN2CCN(c3ccc(C(=O)NS(=O)(=O)c4ccc(NCCC#N)c([N+](=O)[O-])c4)c(Oc4cccc5[nH]ccc45)c3)CC2)=C(c2ccc(Cl)cc2)C1` [EXAMPLE 320, 4-(4-{[2-(4-chlorophenyl)-4,4-dimethylcyclohex-1-en-1-yl]methyl}piperazin-1-yl)-N-({4-[(2-cyanoethyl)amino]-3-nitrophenyl}sulfonyl)-2-(1H-indol-4-yloxy)benzamide]: the “Binding selectivity ratio” value is recorded as 103.6.

On to `CC1(C)CCC(CN2CCN(c3ccc(C(=O)NS(=O)(=O)c4ccc(NCC56CC7CC(C5)C(O)[C@H](C7)C6)c([N+](=O)[O-])c4)c(Oc4ccc5[nH]ccc5c4)c3)CC2)=C(c2ccc(Cl)cc2)C1` (stereo partly drawn) [EXAMPLE 321, 4-(4-{[2-(4-chlorophenyl)-4,4-dimethylcyclohex-1-en-1-yl]methyl}piperazin-1-yl)-N-{[4-({[(3R)-4-hydroxy-1-adamantyl]methyl}amino)-3-nitrophenyl]sulfonyl}-2-(1H-indol-5-yloxy)benzamide], for which the “Binding selectivity ratio” value is over 957.9.

`CC1(C)CCC(CN2CCN(c3ccc(C(=O)NS(=O)(=O)c4ccc(NCCC(F)(F)F)c([N+](=O)[O-])c4)c(Oc4cccc5[nH]ccc45)c3)CC2)=C(c2ccc(Cl)cc2)C1` [EXAMPLE 323, 4-(4-{[2-(4-chlorophenyl)-4,4-dimethylcyclohex-1-en-1-yl]methyl}piperazin-1-yl)-2-(1H-indol-4-yloxy)-N-({3-nitro-4-[(3,3,3-trifluoropropyl)amino]phenyl}sulfonyl)benzamide]: the “Binding selectivity ratio” value is recorded as over 695.2.

`CC1(C)CCC(CN2CCN(c3ccc(C(=O)NS(=O)(=O)c4ccc(NCCC(F)(F)F)c([N+](=O)[O-])c4)c(Oc4ccc5[nH]ccc5c4)c3)CC2)=C(c2ccc(Cl)cc2)C1` [EXAMPLE 324, 4-(4-{[2-(4-chlorophenyl)-4,4-dimethylcyclohex-1-en-1-yl]methyl}piperazin-1-yl)-2-(1H-indol-5-yloxy)-N-({3-nitro-4-[(3,3,3-trifluoropropyl)amino]phenyl}sulfonyl)benzamide]: the “Binding selectivity ratio” value is recorded as over 445.7.

For `CC1(C)CCC(CN2CCN(c3ccc(C(=O)NS(=O)(=O)c4cnc(NCC5CCOCC5)c(Br)c4)c(Oc4cccc5[nH]ccc45)c3)CC2)=C(c2ccc(Cl)cc2)C1` [EXAMPLE 325, N-({5-bromo-6-[(tetrahydro-2H-pyran-4-ylmethyl)amino]pyridin-3-yl}sulfonyl)-4-(4-{[2-(4-chlorophenyl)-4,4-dimethylcyclohex-1-en-1-yl]methyl}piperazin-1-yl)-2-(1H-indol-4-yloxy)benzamide], the “Binding selectivity ratio” value is over 283.1.

For `CC1(C)CCC(CN2CCN(c3ccc(C(=O)NS(=O)(=O)c4ccc(NCC5CCS(=O)(=O)C5)c([N+](=O)[O-])c4)c(Oc4cccc5[nH]ccc45)c3)CC2)=C(c2ccc(Cl)cc2)C1` (stereo not shown) [EXAMPLE 326, 4-(4-{[2-(4-chlorophenyl)-4,4-dimethylcyclohex-1-en-1-yl]methyl}piperazin-1-yl)-N-[(4-{[(1,1-dioxidotetrahydrothien-3-yl)methyl]amino}-3-nitrophenyl)sulfonyl]-2-(1H-indol-4-yloxy)benzamide], the “Binding selectivity ratio” value was over 5708.8.

As to `CC1(C)CCC(CN2CCN(c3ccc(C(=O)NS(=O)(=O)c4ccc(OCC5(F)CCOCC5)c([N+](=O)[O-])c4)c(Oc4ccc5[nH]ccc5c4)c3)CC2)=C(c2ccc(Cl)cc2)C1` [EXAMPLE 327, 4-(4-{[2-(4-chlorophenyl)-4,4-dimethylcyclohex-1-en-1-yl]methyl}piperazin-1-yl)-N-({4-[(4-fluorotetrahydro-2H-pyran-4-yl)methoxy]-3-nitrophenyl}sulfonyl)-2-(1H-indol-5-yloxy)benzamide], the “Binding selectivity ratio” value worked out at 3035.4.

With `CNc1ccc(S(=O)(=O)NC(=O)c2ccc(N3CCN(CC4=C(c5ccc(Cl)cc5)CC(C)(C)CC4)CC3)cc2Oc2ccc3[nH]ccc3c2)cc1S(=O)(=O)C(F)(F)F` [EXAMPLE 328, 4-(4-{[2-(4-chlorophenyl)-4,4-dimethylcyclohex-1-en-1-yl]methyl}piperazin-1-yl)-2-(1H-indol-5-yloxy)-N-({4-(methylamino)-3-[(trifluoromethyl)sulfonyl]phenyl}sulfonyl)benzamide], the “Binding selectivity ratio” value is recorded as over 355.0.

With `CC1(C)CCC(CN2CCN(c3ccc(C(=O)NS(=O)(=O)c4cnc(OCC5CCOCC5)c(Br)c4)c(Oc4ccc5[nH]ccc5c4)c3)CC2)=C(c2ccc(Cl)cc2)C1` [EXAMPLE 329, N-{[5-bromo-6-(tetrahydro-2H-pyran-4-ylmethoxy)pyridin-3-yl]sulfonyl}-4-(4-{[2-(4-chlorophenyl)-4,4-dimethylcyclohex-1-en-1-yl]methyl}piperazin-1-yl)-2-(1H-indol-5-yloxy)benzamide], the “Binding selectivity ratio” value is listed as over 2319.5.

Take `CC(C)Oc1cc(-c2ccc(Cl)cc2)c(CN2CCN(c3ccc(C(=O)NS(=O)(=O)c4ccc(NCC5CCOCC5)c([N+](=O)[O-])c4)c(Oc4ccc5[nH]ccc5c4)c3)CC2)cn1` [EXAMPLE 330, 4-(4-{[4-(4-chlorophenyl)-6-isopropoxypyridin-3-yl]methyl}piperazin-1-yl)-2-(1H-indol-5-yloxy)-N-({3-nitro-4-[(tetrahydro-2H-pyran-4-ylmethyl)amino]phenyl}sulfonyl)benzamide]: the “Binding selectivity ratio” value is recorded as over 8.8.

For `CC1(C)CCC(CN2CCN(c3ccc(C(=O)NS(=O)(=O)c4cnc(OCC5CCOCC5)c(-c5nccs5)c4)c(Oc4ccc5[nH]ccc5c4)c3)CC2)=C(c2ccc(Cl)cc2)C1` [EXAMPLE 331, 4-(4-{[2-(4-chlorophenyl)-4,4-dimethylcyclohex-1-en-1-yl]methyl}piperazin-1-yl)-2-(1H-indol-5-yloxy)-N-{[6-(tetrahydro-2H-pyran-4-ylmethoxy)-5-(1,3-thiazol-2-yl)pyridin-3-yl]sulfonyl}benzamide], the “Binding selectivity ratio” value is on record as over 79.8.

As for `COCCNC(=O)c1ccc(S(=O)(=O)NC(=O)c2ccc(N3CCN(CC4=C(c5ccc(Cl)cc5)CC(C)(C)CC4)CC3)cc2Oc2ccc3[nH]ccc3c2)cc1` [EXAMPLE 332, 4-(4-{[2-(4-chlorophenyl)-4,4-dimethylcyclohex-1-en-1-yl]methyl}piperazin-1-yl)-2-(1H-indol-5-yloxy)-N-[(4-{[(2-methoxyethyl)amino]carbonyl}phenyl)sulfonyl]benzamide], the “Binding selectivity ratio” value is over 52.5.

Regarding `CC1(C)CCC(CN2CCN(c3ccc(C(=O)NS(=O)(=O)c4cnc(OCC5CCOCC5)c(C#N)c4)c(Oc4ccc5[nH]ccc5c4)c3)CC2)=C(c2ccc(Cl)cc2)C1` [EXAMPLE 333, 4-(4-{[2-(4-chlorophenyl)-4,4-dimethylcyclohex-1-en-1-yl]methyl}piperazin-1-yl)-N-{[5-cyano-6-(tetrahydro-2H-pyran-4-ylmethoxy)pyridin-3-yl]sulfonyl}-2-(1H-indol-5-yloxy)benzamide], the “Binding selectivity ratio” value is over 7415.7.

Turning to `CC(=O)N1CCC(Nc2ccc(S(=O)(=O)NC(=O)c3ccc(N4CCN(CC5=C(c6ccc(Cl)cc6)CC(C)(C)CC5)CC4)cc3Oc3ccc4[nH]ccc4c3)cc2[N+](=O)[O-])CC1` [EXAMPLE 334, N-({4-[(1-acetylpiperidin-4-yl)amino]-3-nitrophenyl}sulfonyl)-4-(4-{[2-(4-chlorophenyl)-4,4-dimethylcyclohex-1-en-1-yl]methyl}piperazin-1-yl)-2-(1H-indol-5-yloxy)benzamide], the “Binding selectivity ratio” value is given as over 3697.5.

As for `CC1(C)CCC(CN2CCN(c3ccc(C(=O)NS(=O)(=O)c4ccc(NC5CCN(S(C)(=O)=O)CC5)c([N+](=O)[O-])c4)c(Oc4ccc5[nH]ccc5c4)c3)CC2)=C(c2ccc(Cl)cc2)C1` [EXAMPLE 335, 4-(4-{[2-(4-chlorophenyl)-4,4-dimethylcyclohex-1-en-1-yl]methyl}piperazin-1-yl)-2-(1H-indol-5-yloxy)-N-[(4-{[1-(methylsulfonyl)piperidin-4-yl]amino}-3-nitrophenyl)sulfonyl]benzamide], the “Binding selectivity ratio” value was over 1508.2.

Take `CC1(C)CCC(CN2CCN(c3ccc(C(=O)NS(=O)(=O)c4ccc(NCC5COCCO5)c([N+](=O)[O-])c4)c(Oc4ccc5[nH]ccc5c4)c3)CC2)=C(c2ccc(Cl)cc2)C1` (stereo not shown) [EXAMPLE 336, 4-(4-{[2-(4-chlorophenyl)-4,4-dimethylcyclohex-1-en-1-yl]methyl}piperazin-1-yl)-N-({4-[(1,4-dioxan-2-ylmethyl)amino]-3-nitrophenyl}sulfonyl)-2-(1H-indol-5-yloxy)benzamide]: the “Binding selectivity ratio” value was 2301.3.
